Each structure is given as a SMILES string. Several values for one entry are separate records, joined by “and”; a condition that tells them apart may be missing. Equal entries are not always repeated. Entries after “also recorded” stand apart in the source; their conditions may differ.

Data set [1] concerns seizures in treatment-resistant epilepsy characterised by Doose Syndrome. Description: Expanded access compassionate use program: seizure frequency with CBD therapy in Doose Syndrome. Type of data set: in vivo, children and young adults. The procedure:
(§1) Of 137 children and young adults with severe, childhood onset treatment-resistant epilepsy (TRE), six suffered from Doose Syndrome. These subjects were tested with a highly purified extract of cannabidiol (CBD) obtained from a cannabis plant. The participants in the study were part of an expanded access compassionate use program for CBD.
(§2) All of these patients with a diagnosis of Doose Syndrome presented with multiple seizure types which included tonic-clonic seizures; myoclonic seizures; atonic seizures; absence seizures; myoclonic-absence seizures; and tonic seizures. In addition nocturnal snoring was encountered by one of the patients in the study.
Both patients entered a baseline period of 4 weeks when parents/caregivers kept prospective seizure diaries, noting all countable motor seizure types.
(§3) The patients then received a highly purified CBD extract (greater than 98% CBD w/w) in sesame oil, of known and constant composition, at a dose of 5 mg/kg/day in addition to their baseline anti-epileptic drug (AED) regimen.
Laboratory testing for hematologic, liver, kidney function, and concomitant AED levels was performed at baseline, and after CBD therapy.
All patients were taking at least two concomitant anti-epileptic drugs. These included clobazam; diazepam; lacosamide; lamotrigine; levetiracetam; lorazepam; nordiazepam; n-desmethylclobazam; phenytoin; valproic acid; zonisamide. The average number of concomitant antiepileptic drugs being taken was 2.7. The majority took either clobazam and/or valproic acid.
There were 6 children and young adult patients who received at least 3 months of treatment all of whom suffered from treatment-resistant epilepsy which is characterised by Doose Syndrome.
The change from baseline in the number of different seizures and total number of seizures after 16 weeks treatment are summarized in Table 4 below.

In data set [2] the test system is nocturnal snoring in a patient with Doose Syndrome. In words: Expanded access compassionate use program: nocturnal snoring with CBD therapy. Type of data set: in vivo, children and young adults. The method, then:
as §1, §2, §3
Table 5 below describes the data that was collated for the other seizure types including nocturnal snoring.

The nature of data set [3]: Solubility of the drug substance in water. Type of data set: physicochemical. From the text:
The drug substance, CBD is insoluble in water. Sesame oil was selected as an excipient to solubilize the drug substance.

The next data set deals with apnea hypopnea index. As to conditions: short term; small trial; cited from earlier work.
[4] abbreviates: absence seizures (n = 3), Doose Syndrome patients.
[5] abbreviates: atonic seizures (n = 2), Doose Syndrome patients.
[6] abbreviates: tonic-clonic seizures (n = 5), Doose Syndrome patients.
The mark [7] stands for this setting: nocturnal snoring (n = 1), Doose Syndrome patient.

Turning to `C=C(C)[C@@H]1CCC(C)=C[C@H]1c1c(O)cc(CCCCC)cc1O` [CBD, Cannabidiol], in data set [1] (setting [4]), the “Patients with <50% reduction in absence seizures” value amounted to 0% and the “Patients with >50% reduction in absence seizures” value is 100%. Further, in data set [1] (after 3 months of therapy, of 6 patients), the “Number of Doose syndrome patients with a decrease in total seizure frequency” value was “five”. In data set [1] (setting [5]), the “Patients with <50% reduction in atonic seizures” value stood at 50% and the “Patients with >50% reduction in atonic seizures” value worked out at 50%. In data set [1] (patients not responding well to existing AED), the “Effect on seizure sub-types associated with Doose Syndrome (in words)” value is “very effective treatment for all of the seizure sub-types; also recorded: significantly reduces the number of seizures”. The “Change in baseline (%) in total seizure frequency” value in data set [1] (per subject (subjects 1-6, Doose Syndrome), after 16 weeks treatment, CBD 5 up to 25 mg/kg/day added to baseline AED) was −100.0% (2×) and 65.8% and −67.4% and −68.7% and −92.0%. For the same molecule, the “>50% reduction in seizures (total seizures)” value in data set [1] (per subject (subjects 1-6, Doose Syndrome), after 16 weeks treatment, Yes/No) is “Yes (5×) and No”. Moreover, in data set [1] (setting [6]), the “Patients with <50% reduction in tonic-clonic seizures” value worked out at 20% and the “Patients with >50% reduction in tonic-clonic seizures” value is recorded as 80%. Moreover, the “Effect on occurrence of nocturnal snoring (in words)” value in data set [2] (a child with Doose Syndrome) is “completely eliminate the occurrence of nocturnal snoring”. Moreover, in data set [2] (setting [7]), the “Patients with <50% reduction in nocturnal snoring” value worked out at 0% and the “Patients with >50% reduction in nocturnal snoring” value was 100%. Besides, the Solubility in water result in data set [3] is given as “insoluble”.

With `CCCCCc1cc(O)c2c(c1)OC(C)(C)[C@@H]1CCC(C)=C[C@@H]21` [dronabinol, Tetrahydro- cannabinol], the “Effect on apnea hypopnea index” value in the data set on apnea hypopnea index was “able to reduce the apnea hypopnea index”.

The values are drawn from US20240261234A1, “USE OF C[…] THE TREATMENT OF NOCTURNAL SNORING” (GW Research Limited, priority 2014, published 2024).
